Structures can show the parent of a compound that is named as a salt. Calls of active or inactive are those of the source.
How the values were obtained:
[1] = molecular target: Cyclin-dependent kinase 3 (Homo sapiens, UniProt Q00526)
[2] = molecular target: Mitogen-activated protein kinase kinase kinase kinase 1 (Homo sapiens, UniProt Q92918)
[3] = molecular target: Myosin light chain kinase, smooth muscle (Homo sapiens, UniProt Q15746)
[4] = molecular target: cAMP-dependent protein kinase type II-alpha regulatory subunit (Homo sapiens, UniProt P13861)
Chain of cAMP-dependent protein kinase type II-alpha regulatory subunit (P13861 whole entry): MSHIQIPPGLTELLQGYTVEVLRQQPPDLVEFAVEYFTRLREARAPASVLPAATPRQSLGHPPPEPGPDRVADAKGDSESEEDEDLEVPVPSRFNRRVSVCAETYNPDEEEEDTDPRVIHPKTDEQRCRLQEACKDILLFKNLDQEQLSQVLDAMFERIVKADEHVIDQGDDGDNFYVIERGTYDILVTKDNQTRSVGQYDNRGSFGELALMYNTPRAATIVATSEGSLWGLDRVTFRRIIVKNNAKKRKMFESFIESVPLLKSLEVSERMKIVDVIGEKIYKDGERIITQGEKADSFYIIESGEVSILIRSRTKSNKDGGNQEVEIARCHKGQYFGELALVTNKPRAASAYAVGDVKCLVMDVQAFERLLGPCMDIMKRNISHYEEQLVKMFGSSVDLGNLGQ

[5] = molecular target: 26S proteasome regulatory subunit 6B (Homo sapiens, UniProt P43686)
Chain of 26S proteasome regulatory subunit 6B (P43686 whole entry): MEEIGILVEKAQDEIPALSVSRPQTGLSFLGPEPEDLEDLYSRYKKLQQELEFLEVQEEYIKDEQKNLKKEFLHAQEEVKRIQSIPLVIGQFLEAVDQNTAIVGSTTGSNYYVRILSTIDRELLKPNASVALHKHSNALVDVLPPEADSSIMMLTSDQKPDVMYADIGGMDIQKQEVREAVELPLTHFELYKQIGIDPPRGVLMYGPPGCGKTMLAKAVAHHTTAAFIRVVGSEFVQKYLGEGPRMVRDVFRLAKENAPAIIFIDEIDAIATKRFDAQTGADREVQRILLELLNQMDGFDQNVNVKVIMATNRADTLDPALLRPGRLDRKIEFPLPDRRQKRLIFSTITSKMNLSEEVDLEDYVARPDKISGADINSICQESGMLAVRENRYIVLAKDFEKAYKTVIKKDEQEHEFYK

[6] = molecular target: T1, Ras-related protein Rab-10 (Homo sapiens, UniProt P61026)
T1 sequence (P61026 whole entry): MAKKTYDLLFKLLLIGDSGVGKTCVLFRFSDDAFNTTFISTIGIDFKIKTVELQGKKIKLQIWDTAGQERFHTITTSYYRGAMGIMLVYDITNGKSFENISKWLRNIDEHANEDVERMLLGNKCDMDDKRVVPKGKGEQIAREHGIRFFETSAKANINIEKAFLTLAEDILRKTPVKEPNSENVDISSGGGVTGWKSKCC

[7] = molecular target: Structural maintenance of chromosomes protein 2 (Homo sapiens, UniProt O95347)
Chain of Structural maintenance of chromosomes protein 2 (O95347 whole entry): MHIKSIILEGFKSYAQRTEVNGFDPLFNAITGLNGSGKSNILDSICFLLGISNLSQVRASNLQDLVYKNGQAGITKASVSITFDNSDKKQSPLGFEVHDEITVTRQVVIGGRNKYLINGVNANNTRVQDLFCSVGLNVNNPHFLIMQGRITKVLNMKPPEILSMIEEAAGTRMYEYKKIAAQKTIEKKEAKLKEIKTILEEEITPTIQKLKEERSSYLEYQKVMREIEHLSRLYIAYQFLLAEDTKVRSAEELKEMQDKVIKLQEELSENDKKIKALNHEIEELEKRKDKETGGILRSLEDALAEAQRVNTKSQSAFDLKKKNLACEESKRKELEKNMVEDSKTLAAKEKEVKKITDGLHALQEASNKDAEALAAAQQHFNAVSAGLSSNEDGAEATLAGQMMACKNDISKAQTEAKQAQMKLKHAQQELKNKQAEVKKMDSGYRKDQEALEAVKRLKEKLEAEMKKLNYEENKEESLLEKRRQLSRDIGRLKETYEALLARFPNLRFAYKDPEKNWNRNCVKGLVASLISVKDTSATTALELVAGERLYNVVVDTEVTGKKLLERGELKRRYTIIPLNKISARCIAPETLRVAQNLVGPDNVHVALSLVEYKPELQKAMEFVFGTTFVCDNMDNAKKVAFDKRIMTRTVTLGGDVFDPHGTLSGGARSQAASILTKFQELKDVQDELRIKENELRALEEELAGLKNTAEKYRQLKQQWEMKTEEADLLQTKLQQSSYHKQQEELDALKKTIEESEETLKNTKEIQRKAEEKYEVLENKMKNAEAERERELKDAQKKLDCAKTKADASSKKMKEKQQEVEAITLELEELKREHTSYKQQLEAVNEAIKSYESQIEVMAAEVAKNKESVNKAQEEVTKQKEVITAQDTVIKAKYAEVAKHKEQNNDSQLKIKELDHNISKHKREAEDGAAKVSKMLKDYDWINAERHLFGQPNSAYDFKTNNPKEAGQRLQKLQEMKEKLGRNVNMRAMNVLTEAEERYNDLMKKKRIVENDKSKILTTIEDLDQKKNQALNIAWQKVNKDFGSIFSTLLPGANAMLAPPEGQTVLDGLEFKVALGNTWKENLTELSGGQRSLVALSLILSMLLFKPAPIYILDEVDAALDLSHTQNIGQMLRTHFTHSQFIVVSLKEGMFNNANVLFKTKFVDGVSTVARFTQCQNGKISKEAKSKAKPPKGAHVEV

[8] = molecular target: T2, STE20-related kinase adapter protein alpha (Homo sapiens, UniProt Q7RTN6)
T2 sequence (Q7RTN6 whole entry): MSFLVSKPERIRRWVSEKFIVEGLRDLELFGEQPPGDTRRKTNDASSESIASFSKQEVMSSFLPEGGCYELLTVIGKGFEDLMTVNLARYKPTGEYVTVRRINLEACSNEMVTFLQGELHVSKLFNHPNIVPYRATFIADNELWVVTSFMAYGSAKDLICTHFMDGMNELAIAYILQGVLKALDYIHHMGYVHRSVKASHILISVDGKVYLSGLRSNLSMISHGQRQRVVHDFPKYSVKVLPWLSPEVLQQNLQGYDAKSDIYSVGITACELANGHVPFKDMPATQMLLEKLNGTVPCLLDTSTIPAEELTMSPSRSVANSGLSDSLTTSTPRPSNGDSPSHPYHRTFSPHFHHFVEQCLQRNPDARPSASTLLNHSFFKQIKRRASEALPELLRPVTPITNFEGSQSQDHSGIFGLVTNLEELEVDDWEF

[9] = molecular target: Activated CDC42 kinase 1 (Homo sapiens, UniProt Q07912)
[10] = molecular target: T3, Scaffold protein ILK (Homo sapiens, UniProt Q13418)
T3 sequence (Q13418 whole entry): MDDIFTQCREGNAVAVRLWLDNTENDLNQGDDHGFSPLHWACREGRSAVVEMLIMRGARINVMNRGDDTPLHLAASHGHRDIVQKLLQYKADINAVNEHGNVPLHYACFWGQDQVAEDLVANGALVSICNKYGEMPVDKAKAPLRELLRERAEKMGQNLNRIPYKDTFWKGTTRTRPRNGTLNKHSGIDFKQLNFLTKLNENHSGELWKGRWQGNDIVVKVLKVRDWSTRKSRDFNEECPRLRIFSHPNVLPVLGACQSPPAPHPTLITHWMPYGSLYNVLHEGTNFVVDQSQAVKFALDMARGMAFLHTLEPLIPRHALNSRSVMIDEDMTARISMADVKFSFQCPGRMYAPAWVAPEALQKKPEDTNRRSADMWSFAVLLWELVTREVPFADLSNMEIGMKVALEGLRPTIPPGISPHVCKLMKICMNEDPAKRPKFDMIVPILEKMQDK

[11] = molecular target: T4, Uncharacterized protein FLJ45252 (Homo sapiens, UniProt Q6ZSR9); conditions: read-out: Kd apparent; k-562, colo 205, sk-n-be(2) and mv-4-11
T4 sequence (Q6ZSR9 whole entry): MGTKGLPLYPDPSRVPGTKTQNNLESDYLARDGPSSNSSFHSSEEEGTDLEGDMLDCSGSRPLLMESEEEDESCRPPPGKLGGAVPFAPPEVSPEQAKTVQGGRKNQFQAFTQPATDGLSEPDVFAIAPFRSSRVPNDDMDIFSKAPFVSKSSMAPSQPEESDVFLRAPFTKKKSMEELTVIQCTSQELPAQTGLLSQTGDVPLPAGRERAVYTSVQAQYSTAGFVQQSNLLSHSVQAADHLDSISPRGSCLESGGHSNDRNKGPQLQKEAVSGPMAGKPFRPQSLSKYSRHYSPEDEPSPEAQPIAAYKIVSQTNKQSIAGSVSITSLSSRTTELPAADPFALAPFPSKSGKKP

[12] = molecular target: T5, Serine/threonine-protein kinase TBK1 (Homo sapiens, UniProt Q9UHD2)
T5 sequence (Q9UHD2 whole entry): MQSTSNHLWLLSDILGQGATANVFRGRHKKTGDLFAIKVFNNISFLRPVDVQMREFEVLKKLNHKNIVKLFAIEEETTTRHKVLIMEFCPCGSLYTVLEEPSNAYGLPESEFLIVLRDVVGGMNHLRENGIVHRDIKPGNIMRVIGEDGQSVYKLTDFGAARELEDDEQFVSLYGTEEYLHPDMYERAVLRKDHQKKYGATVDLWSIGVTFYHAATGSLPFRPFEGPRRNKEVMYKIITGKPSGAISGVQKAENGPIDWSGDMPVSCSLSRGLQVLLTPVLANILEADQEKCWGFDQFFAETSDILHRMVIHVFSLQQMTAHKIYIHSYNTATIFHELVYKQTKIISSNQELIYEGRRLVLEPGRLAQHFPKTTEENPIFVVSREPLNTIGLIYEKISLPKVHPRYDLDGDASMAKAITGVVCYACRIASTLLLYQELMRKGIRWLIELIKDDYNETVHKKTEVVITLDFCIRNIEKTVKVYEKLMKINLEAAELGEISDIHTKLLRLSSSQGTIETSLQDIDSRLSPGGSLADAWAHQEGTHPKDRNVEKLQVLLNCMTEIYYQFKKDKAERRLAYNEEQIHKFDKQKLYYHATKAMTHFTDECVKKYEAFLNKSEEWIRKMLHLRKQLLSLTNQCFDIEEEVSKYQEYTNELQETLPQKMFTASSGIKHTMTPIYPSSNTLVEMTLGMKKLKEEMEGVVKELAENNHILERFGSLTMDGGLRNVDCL
Note: in the data inactive means no Kd found up to 30 µM.

Chain of Cyclin-dependent kinase 3 (Q00526 whole entry): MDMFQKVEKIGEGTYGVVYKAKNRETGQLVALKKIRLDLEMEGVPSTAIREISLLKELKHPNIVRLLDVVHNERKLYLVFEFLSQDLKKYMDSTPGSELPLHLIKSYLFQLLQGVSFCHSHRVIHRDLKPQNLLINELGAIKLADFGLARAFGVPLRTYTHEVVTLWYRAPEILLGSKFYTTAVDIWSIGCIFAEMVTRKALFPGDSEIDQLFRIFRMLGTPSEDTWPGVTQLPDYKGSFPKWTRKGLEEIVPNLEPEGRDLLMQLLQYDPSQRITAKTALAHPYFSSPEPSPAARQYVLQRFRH
Chain of Mitogen-activated protein kinase kinase kinase kinase 1 (Q92918 whole entry): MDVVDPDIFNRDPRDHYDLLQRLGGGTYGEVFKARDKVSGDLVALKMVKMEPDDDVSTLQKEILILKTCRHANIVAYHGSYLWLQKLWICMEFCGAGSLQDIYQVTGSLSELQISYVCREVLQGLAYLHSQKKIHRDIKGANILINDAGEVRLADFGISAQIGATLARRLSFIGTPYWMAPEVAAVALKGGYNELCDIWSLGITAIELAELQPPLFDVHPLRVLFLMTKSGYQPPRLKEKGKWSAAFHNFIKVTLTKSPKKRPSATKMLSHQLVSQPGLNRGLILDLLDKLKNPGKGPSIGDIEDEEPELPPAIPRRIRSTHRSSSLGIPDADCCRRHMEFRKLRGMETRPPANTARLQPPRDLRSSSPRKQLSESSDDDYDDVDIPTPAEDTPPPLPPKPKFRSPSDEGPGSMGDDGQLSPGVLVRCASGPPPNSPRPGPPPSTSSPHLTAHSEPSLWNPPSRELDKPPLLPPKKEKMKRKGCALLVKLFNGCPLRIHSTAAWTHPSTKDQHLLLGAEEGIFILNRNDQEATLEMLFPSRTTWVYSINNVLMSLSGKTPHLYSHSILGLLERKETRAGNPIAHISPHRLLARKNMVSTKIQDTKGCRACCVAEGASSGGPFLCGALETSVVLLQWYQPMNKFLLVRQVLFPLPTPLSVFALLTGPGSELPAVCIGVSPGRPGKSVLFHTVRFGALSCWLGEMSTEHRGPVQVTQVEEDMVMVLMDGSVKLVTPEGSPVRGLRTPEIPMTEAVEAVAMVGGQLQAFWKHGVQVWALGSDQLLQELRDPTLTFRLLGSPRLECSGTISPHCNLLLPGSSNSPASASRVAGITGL
Chain of Myosin light chain kinase, smooth muscle (Q15746 whole entry): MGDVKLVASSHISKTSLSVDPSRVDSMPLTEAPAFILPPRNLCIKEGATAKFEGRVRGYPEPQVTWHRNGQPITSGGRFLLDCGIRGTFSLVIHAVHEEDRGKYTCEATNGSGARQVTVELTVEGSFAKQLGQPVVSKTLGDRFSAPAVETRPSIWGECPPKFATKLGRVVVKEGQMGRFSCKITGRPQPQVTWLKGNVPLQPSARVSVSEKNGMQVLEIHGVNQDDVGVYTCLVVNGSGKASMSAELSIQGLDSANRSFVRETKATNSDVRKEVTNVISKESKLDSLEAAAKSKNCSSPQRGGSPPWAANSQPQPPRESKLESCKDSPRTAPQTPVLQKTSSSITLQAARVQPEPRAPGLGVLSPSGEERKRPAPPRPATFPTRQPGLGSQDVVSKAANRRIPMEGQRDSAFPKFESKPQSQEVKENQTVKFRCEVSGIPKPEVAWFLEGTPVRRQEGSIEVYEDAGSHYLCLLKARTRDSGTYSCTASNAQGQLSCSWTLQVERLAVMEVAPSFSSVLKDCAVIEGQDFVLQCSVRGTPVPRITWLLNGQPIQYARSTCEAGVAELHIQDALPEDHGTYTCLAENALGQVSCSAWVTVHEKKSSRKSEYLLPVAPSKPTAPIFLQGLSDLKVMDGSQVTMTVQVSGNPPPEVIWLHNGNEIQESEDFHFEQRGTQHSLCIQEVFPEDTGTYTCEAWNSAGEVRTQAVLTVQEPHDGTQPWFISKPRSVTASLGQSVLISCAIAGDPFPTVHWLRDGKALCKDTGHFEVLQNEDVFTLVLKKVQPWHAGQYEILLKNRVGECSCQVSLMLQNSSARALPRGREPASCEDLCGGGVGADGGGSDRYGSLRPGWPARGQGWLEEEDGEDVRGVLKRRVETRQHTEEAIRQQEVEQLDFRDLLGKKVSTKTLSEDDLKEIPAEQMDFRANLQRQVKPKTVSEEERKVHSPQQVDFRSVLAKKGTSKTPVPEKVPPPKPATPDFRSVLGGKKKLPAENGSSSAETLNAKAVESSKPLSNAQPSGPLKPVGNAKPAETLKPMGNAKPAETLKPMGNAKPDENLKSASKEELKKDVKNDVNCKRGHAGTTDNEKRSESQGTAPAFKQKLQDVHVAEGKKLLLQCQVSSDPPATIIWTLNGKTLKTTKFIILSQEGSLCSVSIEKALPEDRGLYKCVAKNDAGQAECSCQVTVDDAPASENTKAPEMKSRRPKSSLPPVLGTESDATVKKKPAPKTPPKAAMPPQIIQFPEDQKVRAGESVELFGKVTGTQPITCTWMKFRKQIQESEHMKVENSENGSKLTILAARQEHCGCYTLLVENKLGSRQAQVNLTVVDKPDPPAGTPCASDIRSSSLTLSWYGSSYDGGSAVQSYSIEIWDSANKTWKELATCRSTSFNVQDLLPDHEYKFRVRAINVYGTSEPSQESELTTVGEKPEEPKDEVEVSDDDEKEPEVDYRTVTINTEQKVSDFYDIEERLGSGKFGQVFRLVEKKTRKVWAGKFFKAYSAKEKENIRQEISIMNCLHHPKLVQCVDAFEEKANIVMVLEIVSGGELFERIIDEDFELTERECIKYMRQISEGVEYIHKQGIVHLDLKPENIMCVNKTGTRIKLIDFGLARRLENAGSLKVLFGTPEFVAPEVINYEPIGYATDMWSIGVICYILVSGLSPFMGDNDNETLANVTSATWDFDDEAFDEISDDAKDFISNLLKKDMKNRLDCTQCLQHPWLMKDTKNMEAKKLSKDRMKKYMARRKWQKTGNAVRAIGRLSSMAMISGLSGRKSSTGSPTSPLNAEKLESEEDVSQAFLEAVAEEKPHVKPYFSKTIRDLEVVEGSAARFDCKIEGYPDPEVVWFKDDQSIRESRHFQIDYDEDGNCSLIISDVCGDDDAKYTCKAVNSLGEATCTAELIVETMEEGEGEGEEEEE

SMILES	Kd [1]	Kd [2]	Kd [3]	Kd [4]	Kd [5]	Kd [6]	Kd [7]	Kd [8]	Kd [9]	Kd [10]	Kd [11]	Kd [12]
CC(=O)c1cnc2ccc(-c3cc(Cl)c(O)c(Cl)c3)nc2c1N[C@H]1CC[C@H](CN(C)C)CC1	> 30 µM (inactive)	> 30 µM (inactive)	> 30 µM (inactive)	> 30 µM (inactive)	> 30 µM (inactive)	> 30 µM (inactive)	> 30 µM (inactive)	> 30 µM (inactive)	> 30 µM (inactive)			
COc1cc(Nc2ncc3c(n2)-c2ccc(Cl)cc2C(c2c(F)cccc2OC)=NC3)ccc1C(=O)O [ALISERTIB]	> 30 µM (inactive)	> 30 µM (inactive)	> 30 µM (inactive)	> 30 µM (inactive)	> 30 µM (inactive)	1.35 µM	> 30 µM (inactive)	> 30 µM (inactive)		> 30 µM (inactive)	> 30 µM (inactive)	
Cc1nc(NC(=O)N2CCC[C@H]2C(N)=O)sc1-c1ccnc(C(C)(C)C(F)(F)F)c1 [ALPELISIB]	> 30 µM (inactive)		> 30 µM (inactive)	> 30 µM (inactive)	> 30 µM (inactive)	> 30 µM (inactive)	> 30 µM (inactive)	> 30 µM (inactive)	> 30 µM (inactive)		> 30 µM (inactive)	> 30 µM (inactive)
O=C(Nc1c[nH]nc1-c1nc2cc(CN3CCOCC3)ccc2[nH]1)NC1CC1 [AT-9283]	> 30 µM (inactive)	0.214 µM (active)	> 30 µM (inactive)	> 30 µM (inactive)	> 30 µM (inactive)	> 30 µM (inactive)	> 30 µM (inactive)	> 30 µM (inactive)	> 30 µM (inactive)	> 30 µM (inactive)	0.024 µM (active)	
CNC(=O)c1ccccc1Sc1ccc2c(/C=C/c3ccccn3)n[nH]c2c1 [AXITINIB]				> 30 µM (inactive)	> 30 µM (inactive)	> 30 µM (inactive)	> 30 µM (inactive)	> 30 µM (inactive)		> 30 µM (inactive)	2.3 µM (active)	
CCS(=O)(=O)N1CCN(c2ccc(Nc3ncc(C(N)=O)c(NC4CC4)n3)cc2)CC1 [Cerdulatinib Hydrochloride]	> 30 µM (inactive)	> 30 µM (inactive)	> 30 µM (inactive)	> 30 µM (inactive)	> 30 µM (inactive)	> 30 µM (inactive)	> 30 µM (inactive)	> 30 µM (inactive)	> 30 µM (inactive)	> 30 µM (inactive)	0.0007 µM (active)	
CC(C)(C)c1nc(-c2cccc(NS(=O)(=O)c3c(F)cccc3F)c2F)c(-c2ccnc(N)n2)s1 [DABRAFENIB]		> 30 µM (inactive)	> 30 µM (inactive)	> 30 µM (inactive)	> 30 µM (inactive)	> 30 µM (inactive)	> 30 µM (inactive)	> 30 µM (inactive)		> 30 µM (inactive)	> 30 µM (inactive)	> 30 µM (inactive)
Cn1cc(C2=C(c3cn(C4CCN(Cc5ccccn5)CC4)c4ccccc34)C(=O)NC2=O)c2ccccc21 [ENZASTAURIN]				> 30 µM (inactive)	> 30 µM (inactive)	> 30 µM (inactive)	> 30 µM (inactive)	> 30 µM (inactive)		> 30 µM (inactive)	> 30 µM (inactive)	
C[C@@H](Oc1cc(-n2cnc3ccc(CN4CCN(C)CC4)cc32)sc1C(N)=O)c1ccccc1C(F)(F)F [GSK-461364]				> 30 µM (inactive)	> 30 µM (inactive)	> 30 µM (inactive)	> 30 µM (inactive)	> 30 µM (inactive)		> 30 µM (inactive)	> 30 µM (inactive)	
Cc1[nH]c(/C=C2\C(=O)Nc3ccccc32)c(C)c1CCC(=O)O [ORANTINIB]	> 30 µM (inactive)	2.02 µM (active)	> 30 µM (inactive)	> 30 µM (inactive)	> 30 µM (inactive)	> 30 µM (inactive)	> 30 µM (inactive)	> 30 µM (inactive)		> 30 µM (inactive)	1.18 µM (active)	1.98 µM (active)
NC(=O)c1c(OCc2c(F)cc(Br)cc2F)nsc1NC(=O)NCCCCN1CCCC1 [OSI-632]	> 30 µM (inactive)	> 30 µM (inactive)	> 30 µM (inactive)	> 30 µM (inactive)	> 30 µM (inactive)	> 30 µM (inactive)	> 30 µM (inactive)	> 30 µM (inactive)		> 30 µM (inactive)	> 30 µM (inactive)	
Cc1nc(Nc2n[nH]c3c2CN(C(=O)N[C@H](CN(C)C)c2ccccc2)C3(C)C)c2sccc2n1 [PF-03758309]	63.6 µM (active)	2.3 µM (active)	> 30 µM (inactive)	> 30 µM (inactive)	> 30 µM (inactive)	> 30 µM (inactive)	> 30 µM (inactive)	> 30 µM (inactive)	> 30 µM (inactive)		2.72 µM (active)	
CC(=O)NCC(=O)N1[C@@H]2CC[C@H]1c1ccc(Nc3ncc(C(F)(F)F)c(NC4CCC4)n3)cc12 [PF-03814735]	1.53 µM (active)	> 30 µM (inactive)	> 30 µM (inactive)	> 30 µM (inactive)	> 30 µM (inactive)	> 30 µM (inactive)	> 30 µM (inactive)	> 30 µM (inactive)		> 30 µM (inactive)	0.01 µM (active)	
O=C(NOCCO)c1cc(CN2OCCCC2=O)c(F)c(F)c1Nc1ccc(I)cc1F [RO-4987655]				> 30 µM (inactive)	> 30 µM (inactive)	> 30 µM (inactive)	> 30 µM (inactive)	> 30 µM (inactive)		> 30 µM (inactive)	> 30 µM (inactive)	
N#CC[C@H](C1CCCC1)n1cc(-c2ncnc3[nH]ccc23)cn1 [RUXOLITINIB]				> 30 µM (inactive)	> 30 µM (inactive)	> 30 µM (inactive)	> 30 µM (inactive)	3.67 µM		> 30 µM (inactive)	0.196 µM (active)	
